# According to patent US20240342179A1, “TREATMENT OF CANCERS OR NEOPLASMS BY INHIBITING KIF15” (University of Kansas, priority 2023, published 2024):
# Assays:
# [1] = molecular target: KIF15 (Homo sapiens (Human), UniProt Q9NS87); conditions: read-out: median inhibitory concentration; cited from earlier work
# [2] = molecular target: KIF11 (Homo sapiens (Human), UniProt P52732); conditions: b18, cited from earlier work
# [3] = system: HIO-80, HIO-118, FT190, FT194; test: CellTiter Glo cell viability, immortalized non-tumorigenic cell lines; format: cell-based; conditions: control cell lines, 72 hours
# [4] = system: ovarian cancer cell lines; conditions: 72 h
# [5] = system: ovarian cancer cell lines; test: cells; conditions: 72 h, read-out: IC50 cell viability
# Sequence of KIF11 (P52732 whole entry): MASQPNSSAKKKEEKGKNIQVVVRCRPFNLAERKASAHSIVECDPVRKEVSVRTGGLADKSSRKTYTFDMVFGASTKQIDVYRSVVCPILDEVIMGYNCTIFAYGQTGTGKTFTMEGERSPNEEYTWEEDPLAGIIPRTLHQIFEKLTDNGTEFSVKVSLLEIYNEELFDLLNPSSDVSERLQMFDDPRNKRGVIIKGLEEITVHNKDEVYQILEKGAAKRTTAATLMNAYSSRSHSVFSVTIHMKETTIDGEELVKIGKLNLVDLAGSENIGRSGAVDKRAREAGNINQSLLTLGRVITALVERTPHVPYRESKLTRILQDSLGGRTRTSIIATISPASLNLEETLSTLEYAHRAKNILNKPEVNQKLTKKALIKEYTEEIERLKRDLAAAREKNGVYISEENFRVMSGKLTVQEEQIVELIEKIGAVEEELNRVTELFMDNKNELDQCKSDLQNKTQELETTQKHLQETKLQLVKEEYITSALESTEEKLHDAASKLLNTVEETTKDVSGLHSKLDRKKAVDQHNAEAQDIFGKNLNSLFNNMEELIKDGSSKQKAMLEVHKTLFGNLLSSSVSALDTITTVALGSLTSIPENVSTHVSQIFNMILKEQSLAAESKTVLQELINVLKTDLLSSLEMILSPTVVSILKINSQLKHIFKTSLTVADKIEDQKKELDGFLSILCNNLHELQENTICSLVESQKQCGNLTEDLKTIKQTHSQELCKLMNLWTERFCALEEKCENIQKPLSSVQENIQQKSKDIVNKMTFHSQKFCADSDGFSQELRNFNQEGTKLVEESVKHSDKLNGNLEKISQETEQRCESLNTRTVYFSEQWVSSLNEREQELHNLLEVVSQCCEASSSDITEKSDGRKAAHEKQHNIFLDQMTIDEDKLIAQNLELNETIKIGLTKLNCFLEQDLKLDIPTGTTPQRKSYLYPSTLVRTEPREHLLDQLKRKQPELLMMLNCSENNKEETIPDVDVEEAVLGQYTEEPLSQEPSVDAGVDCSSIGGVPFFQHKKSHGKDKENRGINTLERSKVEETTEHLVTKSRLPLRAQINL
# Sequence of KIF15 (Q9NS87 whole entry): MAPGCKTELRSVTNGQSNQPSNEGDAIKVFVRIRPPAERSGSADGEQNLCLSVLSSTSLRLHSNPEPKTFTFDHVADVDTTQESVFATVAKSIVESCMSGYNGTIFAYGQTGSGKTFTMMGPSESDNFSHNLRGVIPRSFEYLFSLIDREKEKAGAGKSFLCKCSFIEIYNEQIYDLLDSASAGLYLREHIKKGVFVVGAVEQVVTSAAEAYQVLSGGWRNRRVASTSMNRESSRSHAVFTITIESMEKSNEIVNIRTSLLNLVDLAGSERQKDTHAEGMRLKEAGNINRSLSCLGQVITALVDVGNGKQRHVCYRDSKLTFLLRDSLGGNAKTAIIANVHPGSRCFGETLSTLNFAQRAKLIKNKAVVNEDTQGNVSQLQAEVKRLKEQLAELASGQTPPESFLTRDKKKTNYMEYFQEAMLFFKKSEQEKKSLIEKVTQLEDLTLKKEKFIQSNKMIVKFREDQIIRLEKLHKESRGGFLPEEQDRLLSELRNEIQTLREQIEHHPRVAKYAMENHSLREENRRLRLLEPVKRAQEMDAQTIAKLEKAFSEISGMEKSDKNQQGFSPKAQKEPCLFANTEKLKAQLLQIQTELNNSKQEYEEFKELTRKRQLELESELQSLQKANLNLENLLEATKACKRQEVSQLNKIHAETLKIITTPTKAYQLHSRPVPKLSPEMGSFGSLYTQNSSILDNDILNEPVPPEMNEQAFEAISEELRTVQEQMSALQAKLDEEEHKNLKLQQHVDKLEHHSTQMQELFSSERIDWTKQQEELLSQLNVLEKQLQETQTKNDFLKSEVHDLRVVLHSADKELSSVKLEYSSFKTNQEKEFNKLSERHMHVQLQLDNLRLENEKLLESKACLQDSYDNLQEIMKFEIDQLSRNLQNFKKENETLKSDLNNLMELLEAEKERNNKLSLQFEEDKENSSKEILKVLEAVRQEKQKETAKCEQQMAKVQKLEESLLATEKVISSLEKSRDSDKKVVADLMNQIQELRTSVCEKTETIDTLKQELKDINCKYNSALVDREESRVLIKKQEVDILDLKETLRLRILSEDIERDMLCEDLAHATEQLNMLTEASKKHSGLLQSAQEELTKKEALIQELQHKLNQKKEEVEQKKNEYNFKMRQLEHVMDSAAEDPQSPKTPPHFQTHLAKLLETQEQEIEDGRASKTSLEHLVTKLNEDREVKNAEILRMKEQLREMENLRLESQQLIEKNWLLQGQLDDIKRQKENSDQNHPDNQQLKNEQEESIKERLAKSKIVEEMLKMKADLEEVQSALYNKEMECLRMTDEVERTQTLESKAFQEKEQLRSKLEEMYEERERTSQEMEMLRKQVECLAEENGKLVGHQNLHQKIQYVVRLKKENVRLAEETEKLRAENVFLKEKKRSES
compound,measurement,setting,value
O=C1Nc2ccc(C(=O)c3ccco3)cc2/C1=C/c1cc(Cl)c(O)c(Cl)c1 [GW108X],IC50,[1],800 nM
CON(C)C(=O)N1N=C(c2cc(F)ccc2F)S[C@@]1(CCCN)c1ccccc1 [filanesib],Ki,[2]; read-out: K values,6 nM
Cc1ccc(C(=O)N(CCCN)[C@@H](c2nc3cc(Cl)ccc3c(=O)n2Cc2ccccc2)C(C)C)cc1 [ispinesib],IC50,[3],7.04 to 23.4 nM
same,loss of viability,[4],greater than 50%
same,IC50,[5],1.07 to 15.8 nM
CCOC(=O)C1=C(C)NC(=S)NC1c1cccc(O)c1 (stereo not drawn) [monastrol],inhibit motor ATP hydrolysis,[2],4.9 µM
